The experiment has as its system Trypanosoma brucei. The experiment can be described thus: Assay 3 Trypanosoma brucei cell growth inhibition assay. Format: cell-based. The note with it: T. b. brucei BSF427, 69 h + 4 h resazurin, maximum threshold 8.0, read-out: pEC50 value against Trypanosoma brucei (converted). On the procedure: Measurement of the ability of the compounds to inhibit trypanosome (T. b. brucei, BSF427, VSG118) cell growth was performed using a modification of the cell viability assay previously described by Raz et al. (Raz B.; Iten M.; Grether-Buhler Y.; Kaminski R.; Brun R. The Alamar Blue assay to determine drug sensitivity of African trypanosomes (T. b. rhodesiense and T. b. gambiense) in vitro. Acta Trop. 1997, 68, 139-147). Compounds were dissolved in DMSO at a top concentration of 10 mM and serially diluted in half log steps to achieve a range of final assay concentrations of 50 μM to 0.5 nM. Compound at each concentration (200-fold final) was added to clear 96-well tissue culture plates in a volume of 1 μL. Then 2000 cells per well in relevant growth medium (HMI-9T for T. brucei, a modification of HMI-9 as described by Hurumi et al. (Hirumi H.; Hirumi K. Continuous cultivation of Trypanosoma brucei blood stream forms in a medium containing a low concentration of serum-protein without feeder cell-layers. J. Parasitol. 1989, 75, 985-989.) where 0.2 mM 2-mercaptoethanol was replaced with 0.056 mM thiolglycerol, and MEM with 10% FBS for MRC5) were then added to columns 1-11 of the plates in a volume of 199 μL. To column 12, 200 μL of medium was added to provide a no cells control. Plates were then incubated at 37° C. in an atmosphere of 5% CO2 for 69 h, before the addition of 20 μL of 500 μM rezasurin solution, and a further incubation period of 4 h. Plates were then read on a BioTek flx800 fluorescent plate reader, and percentage inhibition was compared to the maximum and minimum assay controls. Concentration effect curves were fitted using nonlinear regression using XLFit 4.2 and EC50 values determined.

Some results are limits rather than exact numbers.

For the compound `O=C(Nc1ccc(F)c(-c2cn3nc(N4CCOCC4)cnc3n2)c1)N1CCCC1` [Example 1, N-(4-fluoro-3-(2-morpholinoimidazo[1,2-b][1,2,4]triazin-6-yl)phenyl)pyrrolidine-1-carboxamide], the EC50 is below 10 nM.

Source of the values: US10065965B2, “Imidazo[1,2-B][1,2,4]triazine derivatives as antiparasitic agents” (GlaxoSmithKline Intellectual Property Development Limited, priority 2015, dated 2018).
